The values that follow come from PubChem BioAssay (NCI).

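Cells were grown in 96-well plates and exposed to each compound for 48 hours at five concentrations; endpoints were interpolated linearly between bracketing concentrations, or set to the highest concentration if not reached. At the TGI there is no net growth.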 Where only a bound is given, the exact number is not on record here.

Assay in all cases: growth of human tumour cells (NCI), 48 h
For experiment [1], the system named is HL-60(TB) leukemia.
Experiment [2] has as its system NCI-H460 lung.
The subject of experiment [3] is ACHN renal.
For experiment [4], the system named is A549 NSCLC.
In experiment [5] the test system is NCI-H23 lung.
Experiment [6] deals with SF-268 CNS.
In experiment [7] the test system is PC-3 prostate.
Experiment [8] has as its system SK-MEL-5 melanoma.
For experiment [9], the system named is OVCAR-5 ovarian.
Experiment [10] deals with MDA-MB-435.
Experiment [11] relates to U251 CNS.
The test system of experiment [12] is HT29 colon.

With `CC(=O)OCC1OC(OCCCOP(=O)(OCCC#N)OCC2OC(n3cnc4c(N)ncnc43)C(OC(=O)c3ccccc3)C2OC(=O)c2ccccc2)C(OC(C)=O)C(OC(C)=O)C1OC(C)=O` (stereo unspecified), the TGI in experiment [1], in [2], in experiment [3], in [4], in experiment [5] and in experiment [6] was over 100 µM in each case. For the same compound, the TGI in experiment [7], in experiment [8], in [9], in experiment [10], in experiment [11] and in experiment [12] was over 100 µM each time.

Take `CCN(CC)c1c(C(C)(C)C)c(=O)n2ccsc2c1OC(C)=O`: the TGI in experiment [1] was over 100 µM; in [2], 31.3 µM; in experiment [3] it was 29.7 µM; in experiment [4], 28.2 µM; in experiment [5] it was 30.7 µM; in [6], 30.1 µM. Moreover, the TGI in experiment [7] amounted to 23.6 µM; in experiment [8], 32.2 µM; in experiment [9], 29.7 µM; in experiment [10] it was 32.5 µM; in experiment [11], 30.8 µM; in [12] it was 28.4 µM.

On to `Nc1nc(Cl)c(CO)c(NCC2(CO)CCC2)n1`, for which the TGI in experiment [1], in experiment [2], in experiment [3], in experiment [4], in experiment [5] and in experiment [6] was over 100 µM in each case. The TGI in experiment [7], in [8], in experiment [9], in experiment [10], in experiment [11] and in experiment [12] was over 100 µM each time.

As to `COc1cc(/C=C(\C)[N+](=O)[O-])cc(OC)c1`, the TGI in [1] turned out to be 4.33 µM; in experiment [2], 39.5 µM; in experiment [3], 30.3 µM; in experiment [4] it was 61.5 µM; in experiment [5], 37.1 µM; in experiment [6], 35.6 µM. For the same compound, the TGI in experiment [7] is 34.8 µM; in experiment [8] it was 31.7 µM; in experiment [9], 36.1 µM; in experiment [10], 28.3 µM; in [11], 32.1 µM; in [12], 38.5 µM.

Consider `COc1cccc(NC(=O)CC(=O)NN)c1`, for which the TGI in experiment [1], in [2], in [3], in experiment [4], in experiment [5] and in experiment [6] was over 100 µM in each case. Further, the TGI in experiment [7], in experiment [8], in [9], in experiment [10], in experiment [11] and in experiment [12] was over 100 µM in each case.

`S=c1ncc(-c2cncc(-c3cnc(=S)[nH]c3)n2)c[nH]1`: the TGI in experiment [1], in [2], in experiment [3], in experiment [4], in experiment [5] and in experiment [6] was over 100 µM each time. The TGI in [7], in experiment [8], in [9], in experiment [10], in [11] and in [12] was over 100 µM throughout.

For the compound `Cc1sc(/N=C/C2=C(O)CC(C)(C)CC2=O)nc1-c1ccccc1`, the TGI in experiment [1] is 5.93 µM; in experiment [2] it was over 100 µM; in experiment [3] it was over 100 µM; in experiment [4] it was over 100 µM; in experiment [5] it was over 100 µM; in experiment [6], over 100 µM. The TGI in experiment [7], in [8], in experiment [9], in experiment [10], in experiment [11] and in experiment [12] was over 100 µM each time.

In the case of `O=C1Cc2cc3ccccc3nc2-c2ccccc2N1`, the TGI in experiment [1], in experiment [2], in experiment [3], in experiment [4], in experiment [5] and in experiment [6] was over 100 µM throughout. Also, the TGI in experiment [7], in experiment [8], in [9], in experiment [10], in [11] and in experiment [12] was over 100 µM each time.
